# Test results reported in patent US20110250266A1, “LIPOSOMAL SYSTEMS COMPRISING SPHINGOMYELIN” (Yissum Research Development Company of the Hebrew …, priority 2008, published 2011).
# Several values for one entry are separate records, joined by “and”; a condition that tells them apart may be missing. Equal entries are not always repeated. Structures can show the parent of a compound that is named as a salt.
# Legend:
# [1] = test system: Mice (male Swiss-Webster); experiment: Analgesic efficacy in mouse model (electrical stimulation of abdominal skin, vocalization threshold); format: in vivo; design: key: 1 = analgesia; 0 = no analgesia; 10 = partial analgesia
# Procedure: Testing for analgesia was done by electrical stimulation of the skin directly overlying the abdomen at the site of injection using a current generator (model S48, Grass Instruments).
# Mice (male Swiss-Webster, 26±3 gr) were tested prior to injection to determine the vocalization threshold than were injected with encapsulation BUP liposomes than determine analgesic duration (G. J. Grant et al, pharmaceutical research, vol 18, no. 3, 336-343, 2001).
# In order to evaluate the effect of altering the volume and BUP concentration of the injection, in each group, three mice received 150 μL of the 2% formulation and 3 mice received 300 μL of a 1:1 diluted 2% formulation.
# In these Tables, an numeric score of “1” denotes full analgesia, a numeric score of “0” was given when there was no analgesic effect, and a numeric value of “10” when there was partial analgesia.
# As indicated above, the numerical score to the spreadsheet was introduced for the evaluation of the analgesic effect of various liposome preparations performance in vivo: For each time period (e.g. 4 hrs, 8 hrs etc) a numeric value of 1 was given if the anesthesia was complete; 10 or 0.5 was given when analgesia was partial (incomplete) and 0 for no anesthesia. The mean for each subgroup was calculated separately (i.e. 1% 300 μl, 2% 150 μg).
# [2] = test system: mouse; experiment: Maximal tolerated dose of free BUP; format: in vivo
# [3] = individual mice, Bup conc 0.25%, volume 150 ul, 0.375 mg Bup
# [4] = individual mice, Bup conc 0.25%, volume 150 ul, 0.375 mg Bup, hydrochloride
# [5] = individual mice, Bup conc 0.25%, volume 300 ul, 0.75 mg Bup
# [6] = individual mice, Bup conc 0.25%, volume 300 ul, 0.75 mg Bup, hydrochloride
# [7] = individual mice, Bup conc 0.50%, volume 150 ul, 0.75 mg Bup
# [8] = individual mice, Bup conc 0.50%, volume 150 ul, 0.75 mg Bup, hydrochloride
# [9] = mice, 0.25%, 150 ul, 0.375 mg Bup
# [10] = mice, 0.25%, 150 ul, 0.375 mg Bup, hydrochloride
# [11] = mice, 0.25%, 300 ul, 0.75 mg Bup
# [12] = mice, 0.25%, 300 ul, 0.75 mg Bup, hydrochloride
# [13] = mice, 0.50%, 150 ul, 0.75 mg Bup
# [14] = mice, 0.50%, 150 ul, 0.75 mg Bup, hydrochloride
structure (smiles),measurement,setting,value
"CCCCN1CCCCC1C(=O)Nc1c(C)cccc1C (stereo not drawn) [Standard Bupivacaine, Bupivacaine hydrochloride]",Analgesic effect score at 15 min,[1]; [3],1
same,Analgesic effect score at 30 min,[1]; [3],1
same,Analgesic effect score at 45 min,[1]; [3],1
same,Analgesic effect score at 60 min,[1]; [4],0 (5×) and 1 (2×) and 10
same,Analgesic effect score at 75 min,[1]; [4],0 (7×) and 10
same,Analgesic effect score at 90 min,[1]; [3],0
same,Analgesic effect score at 15 min,[1]; [5],1
same,Analgesic effect score at 30 min,[1]; [5],1
same,Analgesic effect score at 45 min,[1]; [5],1
same,Analgesic effect score at 60 min,[1]; [5],1
same,Analgesic effect score at 75 min,[1]; [6],0 and 1 (7×)
same,Analgesic effect score at 90 min,[1]; [6],0 and 1 (5×) and 10 (2×)
same,Analgesic effect score at 105 min,[1]; [6],0 (5×) and 10 and 1 (2×)
same,Analgesic effect score at 120 min,"[1]; individual mice, Bup conc 0.25%, volume 300 ul, 0.75 mg Bup, 120 min, hydrochloride",0 (7×) and 10
same,Analgesic effect score at 135 min,"[1]; individual mice, Bup conc 0.25%, volume 300 ul, 0.75 mg Bup, 135 min",0
same,Analgesic effect score at 15 min,[1]; [7],1
same,Analgesic effect score at 30 min,[1]; [7],1
same,Analgesic effect score at 45 min,[1]; [7],1
same,Analgesic effect score at 60 min,[1]; [8],1 (7×) and 10
same,Analgesic effect score at 75 min,[1]; [8],1 (6×) and 0 and 10
same,Analgesic effect score at 90 min,[1]; [8],0 (4×) and 10 (2×) and 1 (2×)
same,Analgesic effect score at 105 min,[1]; [7],0
same,analgesia 15 min,[1]; [9],1
same,analgesia 30 min,[1]; [9],1
same,analgesia 45 min,[1]; [9],1
same,analgesia 60 min,[1]; [10],0 and 1 and 10
same,analgesia 75 min,[1]; [10],0 and 10
same,analgesia 90 min,[1]; [9],0
same,analgesia 15 min,[1]; [11],1
same,analgesia 30 min,[1]; [11],1
same,analgesia 45 min,[1]; [11],1
same,analgesia 60 min,[1]; [11],1
same,analgesia 75 min,[1]; [12],0 and 1
same,analgesia 90 min,[1]; [12],0 and 1 and 10
same,analgesia 105 min,[1]; [12],0 and 10 and 1
same,analgesia 120 min,"[1]; mice, 0.25%, 300 ul, 0.75 mg Bup, 120 min, hydrochloride",0 and 10
same,analgesia 135 min,"[1]; mice, 0.25%, 300 ul, 0.75 mg Bup, 135 min",0
same,analgesia 15 min,[1]; [13],1
same,analgesia 30 min,[1]; [13],1
same,analgesia 45 min,[1]; [13],1
same,analgesia 60 min,[1]; [14],1 and 10
same,analgesia 75 min,[1]; [14],1 and 0 and 10
same,analgesia 90 min,[1]; [14],0 and 10 and 1
same,analgesia 105 min,[1]; [13],0
same,"maximal tolerated dose, MTD",[2],0.75 mg/mouse
